# Test results from patent US10405547B2, “Substituted cyclic amides as herbicides” (FMC Corporation, priority 2015, dated 2019).
# Experiments:
# Assay type in all cases: in vivo
# [1] = system: blackgrass (Alopecurus myosuroides); assay: Test A postemergence, blackgrass; conditions: visual injury, 0 to 100 scale (0 no effect, 100 complete control), approximately 10 days
# Procedure, shortened: (§1)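 Visual injury on a 0 to 100 scale, about 10 days post-spray in the greenhouse. Postemergence plants measured 2–10 cm at one to two leaves; preemergence pots received a directed soil spray. Soil was a loam–sand blend.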
# [2] = system: barnyardgrass (Echinochloa crus-galli); assay: Test B flooded paddy test, barnyardgrass; conditions: 250 g ai/ha, applied to paddy water, visual rating after 13 to 15 days, scale 0 (no effect) to 100 (complete control)
# Procedure, shortened: (§2)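 Under a constant 3 cm flood, test compounds went directly into the paddy water. Following 13 to 15 days of greenhouse growth, treated species and controls were compared by eye.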
# [3] = system: pigweed (Amaranthus retroflexus); assay: Test A preemergence, pigweed; conditions: 0 to 100 scale (0 no effect, 100 complete control)
# Procedure, shortened: as §1
# [4] = system: ryegrass, Italian (Lolium multiflorum); assay: Test A preemergence, Italian ryegrass; conditions: 0 to 100 scale (0 no effect, 100 complete control)
# Procedure, shortened: as §1
# [5] = system: foxtail, giant (Setaria faberii); assay: Test A preemergence, giant foxtail; conditions: 0 to 100 scale (0 no effect, 100 complete control)
# Procedure, shortened: as §1
# [6] = system: galium (catchweed bedstraw, Galium aparine); assay: Test A postemergence, galium; conditions: visual injury, 0 to 100 scale (0 no effect, 100 complete control), approximately 10 days
# Procedure, shortened: as §1
# [7] = system: ducksalad (Heteranthera limosa); assay: Test B flooded paddy test, ducksalad; conditions: 250 g ai/ha, applied to paddy water, visual rating after 13 to 15 days, scale 0 (no effect) to 100 (complete control)
# Procedure, shortened: as §2
# [8] = system: ragweed (common ragweed, Ambrosia elatior); assay: Test A preemergence, ragweed; conditions: 0 to 100 scale (0 no effect, 100 complete control)
# Procedure, shortened: as §1
# [9] = system: ragweed (common ragweed, Ambrosia elatior); assay: Test A postemergence, ragweed; conditions: visual injury, 0 to 100 scale (0 no effect, 100 complete control), approximately 10 days
# Procedure, shortened: as §1
# kochia (Kochia scoparia) [10] = assay: Test A postemergence, kochia; conditions: visual injury, 0 to 100 scale (0 no effect, 100 complete control), approximately 10 days
# Procedure, shortened: as §1
# [11] = system: wheat (Triticum aestivum); assay: Test A postemergence, wheat; conditions: visual injury, 0 to 100 scale (0 no effect, 100 complete control), approximately 10 days
# Procedure, shortened: as §1
# corn (Zea mays) = assay: Test A postemergence, corn; conditions: visual injury, 0 to 100 scale (0 no effect, 100 complete control), approximately 10 days
# Procedure, shortened: as §1
# [12] = system: ryegrass, Italian (Lolium multiflorum); assay: Test A postemergence, Italian ryegrass; conditions: visual injury, 0 to 100 scale (0 no effect, 100 complete control), approximately 10 days
# Procedure, shortened: as §1
# [13] = system: pigweed (Amaranthus retroflexus); assay: Test A postemergence, pigweed; conditions: visual injury, 0 to 100 scale (0 no effect, 100 complete control), approximately 10 days
# Procedure, shortened: as §1
# [14] = system: barnyardgrass (Echinochloa crus-galli); assay: Test A postemergence, barnyardgrass; conditions: visual injury, 0 to 100 scale (0 no effect, 100 complete control), approximately 10 days
# Procedure, shortened: as §1
# [15] = system: sedge, umbrella (small-flower umbrella sedge, Cyperus difformis); assay: Test B flooded paddy test, umbrella sedge; conditions: 250 g ai/ha, applied to paddy water, visual rating after 13 to 15 days, scale 0 (no effect) to 100 (complete control)
# Procedure, shortened: as §2
# kochia (Kochia scoparia) [16] = assay: Test A preemergence, kochia; conditions: 0 to 100 scale (0 no effect, 100 complete control)
# Procedure, shortened: as §1
# [17] = system: barnyardgrass (Echinochloa crus-galli); assay: Test A preemergence, barnyardgrass; conditions: 0 to 100 scale (0 no effect, 100 complete control)
# Procedure, shortened: as §1
# [18] = system: foxtail, giant (Setaria faberii); assay: Test A postemergence, giant foxtail; conditions: visual injury, 0 to 100 scale (0 no effect, 100 complete control), approximately 10 days
# Procedure, shortened: as §1
# rice (Oryza sativa) = assay: Test B flooded paddy test, rice; conditions: 250 g ai/ha, applied to paddy water, visual rating after 13 to 15 days, scale 0 (no effect) to 100 (complete control)
# Procedure, shortened: as §2
Compound,"Plant response rating, Blackgrass ([1]; 125 g ai/ha)","Plant response rating, Blackgrass ([1]; 500 g ai/ha)","Plant response rating, Barnyardgrass (Flood) [2]","Plant response rating, Pigweed ([3]; 125 g ai/ha)","Plant response rating, Pigweed ([3]; 500 g ai/ha)","Plant response rating, Ryegrass, Italian ([4]; 125 g ai/ha)","Plant response rating, Ryegrass, Italian ([4]; 500 g ai/ha)","Plant response rating, Foxtail, Giant ([5]; 125 g ai/ha)","Plant response rating, Foxtail, Giant ([5]; 500 g ai/ha)","Plant response rating, Galium ([6]; 125 g ai/ha)","Plant response rating, Galium ([6]; 500 g ai/ha)","Plant response rating, Ducksalad (Flood) [7]","Plant response rating, Ragweed ([8]; 125 g ai/ha)","Plant response rating, Ragweed ([8]; 500 g ai/ha)","Plant response rating, Ragweed ([9]; 125 g ai/ha)","Plant response rating, Ragweed ([9]; 500 g ai/ha)","Plant response rating, Kochia (kochia (Kochia scoparia) [10]; 125 g ai/ha)","Plant response rating, Kochia (kochia (Kochia scoparia) [10]; 500 g ai/ha)","Plant response rating, Wheat ([11]; 125 g ai/ha)","Plant response rating, Wheat ([11]; 500 g ai/ha)",further results
"O=C1NCC(c2cccc(Oc3ccc(F)cn3)c2)C1C(=O)Nc1ccccc1F (single isomer, unassigned) [Compound 49]",0,40,0,0,20,40,70,90,90,20,70,100,0,40,0,40,0,0,0,40,"Plant response rating, Corn (corn (Zea mays); 125 g ai/ha): 30; Plant response rating, Corn (corn (Zea mays); 500 g ai/ha): 40; Plant response rating, Ryegrass, Italian ([12]; 125 g ai/ha): 0; Plant response rating, Ryegrass, Italian ([12]; 500 g ai/ha): 50; Plant response rating, Pigweed ([13]; 125 g ai/ha): 0; Plant response rating, Pigweed ([13]; 500 g ai/ha): 20; Plant response rating, Barnyardgrass ([14]; 125 g ai/ha): 80; Plant response rating, Barnyardgrass ([14]; 500 g ai/ha): 90; Plant response rating, Sedge, Umbrella (Flood) [15]: 0; Plant response rating, Kochia (kochia (Kochia scoparia) [16]; 125 g ai/ha): 20; Plant response rating, Kochia (kochia (Kochia scoparia) [16]; 500 g ai/ha): 70; Plant response rating, Barnyardgrass ([17]; 125 g ai/ha): 90; Plant response rating, Barnyardgrass ([17]; 500 g ai/ha): 90; Plant response rating, Foxtail, Giant ([18]; 125 g ai/ha): 70; Plant response rating, Foxtail, Giant ([18]; 500 g ai/ha): 90; Plant response rating, Rice (Flood) (rice (Oryza sativa)): 0"
"CN1CC(c2cccc(Sc3ccccc3)c2)C(C(=O)Nc2cccc(F)c2F)C1=O (single isomer, unassigned) [Compound 51]",0,0,0,0,0,0,20,90,90,40,50,40,0,0,0,20,0,30,0,20,"Plant response rating, Corn (corn (Zea mays); 125 g ai/ha): 0; Plant response rating, Corn (corn (Zea mays); 500 g ai/ha): 30; Plant response rating, Ryegrass, Italian ([12]; 125 g ai/ha): 20; Plant response rating, Ryegrass, Italian ([12]; 500 g ai/ha): 30; Plant response rating, Pigweed ([13]; 125 g ai/ha): 0; Plant response rating, Pigweed ([13]; 500 g ai/ha): 0; Plant response rating, Barnyardgrass ([14]; 125 g ai/ha): 0; Plant response rating, Barnyardgrass ([14]; 500 g ai/ha): 30; Plant response rating, Sedge, Umbrella (Flood) [15]: 0; Plant response rating, Kochia (kochia (Kochia scoparia) [16]; 125 g ai/ha): 20; Plant response rating, Kochia (kochia (Kochia scoparia) [16]; 500 g ai/ha): 50; Plant response rating, Barnyardgrass ([17]; 125 g ai/ha): 20; Plant response rating, Foxtail, Giant ([18]; 125 g ai/ha): 10; Plant response rating, Foxtail, Giant ([18]; 500 g ai/ha): 40; Plant response rating, Rice (Flood) (rice (Oryza sativa)): 0"
